In data set [1] the test system is formalin response. As to the kind of experiment: Formalin assay in rats after i.v. (tail vein) injection of peptide. Format: in vivo. The conditions noted are these: rat, tail vein injection 1 mM. The method, then:
FIG. 2—Supression of phase II, but not phase I formalin response in rats injected with R9-QDHWC peptide. The effect of i.v. administration of PBS, R9 (1 mM) or R9-QDHWC (1 mM) on phase I and phase II of the formalin assay. Phase I represents the period from 0-10 min following formalin injection and phase II represents the period from 11-60 min following formalin injection. N=4-7 rats per group. *** indicates a significant difference when compared to PBS injection (p<0.01).
As is shown in FIG. 2, the peptide R9-QDHWC (full sequence RRRRRRRRRQDHWC; SEQ ID NO_also inhibits phage II but not phase I responses in the rat formalin model. Male Sprague Dawley rats (175-225 gm) received a tail vein injection of either PBS, R9 (1 mM), or R9-QDHWC (1 mM) following which they were placed in a plexiglass observation chamber to allow for acclimation. Thirty minutes following the tail vein injection, the dorsal surface of one hind paw was injected with 50 ul of a 5% formalin solution. Observers, blind to drug treatment, scored the number of biting, licking, and scratching behaviors of the injected hindlimb and paw. Data were analyzed with SigmaStat Software (SPSS, Inc. v. 2.03) using ANOVA followed by a Tukey post hoc analysis.

Data set [2] has as its system formalin response. The data set can be described thus: Formalin assay in mouse, test compound injected into the hindpaw. Type of data set: in vivo. The note with it: hindpaw injection. The procedure: FIGS. 1A & 1B—Supression of phase II, but not phase I formalin response in mouse injected with R9-NC peptide. FIG. 1A. Sequence of R9-NC peptide. FIG. 1B. Results of formalin assay in control mouse (n=8) and mouse injected with R9-NC 60 min prior to formalin injection (n=8). Phase I response (1-10 min from formalin injection) and phase II response (11-60 min from formalin injection) are shown.
First, animals are injected with a 10 μM (20 μl) solution of the test compound (dissolved in PBS) in the dorsal surface of the hindpaw. One hour following the injection of the test compound, animals receive a formalin injection (20 μl of a 5% solution) into the dorsal surface of the hindpaw. The contralateral paw is not injected. Following injection, animals are immediately transferred to a plexiglass observation cage. Each animal is observed for a total of 60 minutes following formalin injection. The period spent biting, scratching, or licking the injected hindpaw is recorded (pain score). Data is presented as cumulative time spent biting, scratching, and licking in phase I (0-10 min) and phase II (11-60 min).
One hour following delivery of either saline (control) or R9-NC into the dorsum of the hindpaw, formalin (20 μl of a 5% solution) was injected into the same hindpaw. No effect of R9-NC on phase I of the formalin assay was observed.

Data set [3] relates to GST-Mint1-PDZ1/2 protein. As to the kind of experiment: ALPHA (AlphaScreen) assay of bio-NC peptide association with GST-Mint1-PDZ1/2. Type of data set: binding. The conditions noted are these: with GST-Mint1-PDZ-1/2, 189 nM concentration.
Data set [4] has as its system GST-Mint1-PDZ1/2 protein. The data set can be described thus: HTRF assay of bio-NC peptide association with GST-Mint1-PDZ1/2. Format: binding. The conditions noted are these: 1000 nM with 1000 nM GST-Mint1-PDZ1/2.
The subject of data set [5] is mature hippocampal neuronal cultures. As to the kind of experiment: FM1-43 imaging, double-staining protocol (synaptic function). Type of data set: cell-based. The note with it: neurons incubated with 50 μM peptide for 15 min; 90 mM KCl stimulation. An excerpt: FIGS. 3A-D—Effects of R9-QDHWC peptides on synaptic function. Double-staining protocol is shown on the top. Results of first and second destaining are shown for representative puncta for control neurons (FIG. 3A), for neurons loaded with R9 peptide (FIG. 3B) and for neurons loaded with R9-QDHWC peptide (FIG. 3C). An average d2/d1 ratios are compared for all 3 groups of neurons (FIG. 3D).
An FM1-43 imaging was used to study synaptic effects of R9-QDHWC competitive peptide that corresponds to Mint-PDZ binding site on Cav2.2 subunit. In these experiments we adapted double-staining protocol from (Reuter, 1995). First the mature hippocampal neuronal cultures were stained with FM1-43 dye for 90 sec in the presence of 47 mM KCl (FIG. 3, top). Following staining and washout of the dye (10 min) the neurons were stimulated by 90 mM KCl and the initial rate of destaining (d1) was measured at each puncta (FIG. 3, top). After completion of the first destaining protocol, the same neuronal culture was re-stained with FM1-43 for 90 sec in the presence of 47 mM KCl. […] The initial rate of destaining (d2) was once again measured at each puncta (FIG. 3, top).
To compare the results obtained during first and second destaining protocols and to minimize puncta-to-puncta variability, the inventors calculated the d2/d1 ratios for each puncta.

Ends that are not written are not given here.

Consider “RRRRRRRRRQDHWC [R9-QDHWC, RRRRRRRRRQDHWC]”, for which, in data set [1], the “adverse effects of delivery of the peptide to rats” value is on record as “no apparent adverse effects”.
Consider RRRRRRRRRHSYHHPDQDHWC [R9-NC], for which, in data set [2], the “side effect when injected in the hindpaw” value is given as “no untoward side effect”.
As to `O=C(O)CCCC[C@@H]1SC[C@@H]2NC(=O)N[C@@H]21` [Biotin], in data set [3], the ALPHA signal result was “less than 1,500”. In data set [4], the HTRF ratio entry is “less than 0.04”.
As for “RRRRRRRRR [R9, peptide permeant motif, used as control peptide]”, the “average d2/d1 ratio (initial rates of FM1-43 destaining)” value in data set [5] worked out at 0.55±0.15. The “formalin induced phase II behaviors vs PBS” value in data set [1] (30 min before formalin, phase II 11-60 min) is reported as “not significantly different”.

These data come from US7829688B2, “Peptides of CaV2.2 that inhibit pain” (The Board of Regents of the University of Texas System, priority 2004, dated 2010).
